Where “and” joins values, the source holds several entries; their conditions need not be identical. Equal values may be shown once.
System: 168753-222-R-J1-PDC complex spheroid viability
Assay: Anticancer human tumor 168753-222-R-J1-PDC patient-derived bladder carcinoma cell line growth inhibition [CLK]
Details: for viability, T/C: stronger effect = lower value
Method in brief: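 Patient-derived tumor cells grown as complex spheroids with HUVEC endothelial cells and mesenchymal stem cells, treated with drug combinations. Concentrations descend in half-log steps from near clinical Cmax, or from 10 microM if Cmax unknown.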

[1] = curve of first compound, second compound 0.0316 µM
[2] = curve of first compound, second compound 0.1 µM
[3] = curve of first compound, second compound 0.316 µM
[4] = curve of first compound, second compound 1 µM
[5] = curve of first compound, second compound 3.16 µM
[6] = curve of first compound, second compound 10 µM
[7] = second compound 0.0316 µM, first compound 0.0316 µM
[8] = second compound 0.0316 µM, first compound 0.1 µM
[9] = second compound 0.0316 µM, first compound 0.316 µM
[10] = second compound 0.0316 µM, first compound 1 µM
[11] = second compound 0.0316 µM, first compound 3.16 µM
[12] = second compound 0.0316 µM, first compound 10 µM
[13] = second compound 0.1 µM, first compound 0.0316 µM
[14] = second compound 0.1 µM, first compound 0.1 µM
[15] = second compound 0.1 µM, first compound 0.316 µM
[16] = second compound 0.1 µM, first compound 1 µM
[17] = second compound 0.1 µM, first compound 3.16 µM
[18] = second compound 0.1 µM, first compound 10 µM
[19] = second compound 0.316 µM, first compound 0.0316 µM
[20] = second compound 0.316 µM, first compound 0.1 µM
[21] = second compound 0.316 µM, first compound 0.316 µM
[22] = second compound 0.316 µM, first compound 1 µM
[23] = second compound 0.316 µM, first compound 3.16 µM
[24] = second compound 0.316 µM, first compound 10 µM
[25] = second compound 1 µM, first compound 0.0316 µM
[26] = second compound 1 µM, first compound 0.1 µM
[27] = second compound 1 µM, first compound 0.316 µM
[28] = second compound 1 µM, first compound 1 µM
[29] = second compound 1 µM, first compound 3.16 µM
[30] = second compound 1 µM, first compound 10 µM
[31] = second compound 3.16 µM, first compound 0.0316 µM
[32] = second compound 3.16 µM, first compound 0.1 µM
[33] = second compound 3.16 µM, first compound 0.316 µM
[34] = second compound 3.16 µM, first compound 1 µM
[35] = second compound 3.16 µM, first compound 3.16 µM
[36] = second compound 3.16 µM, first compound 10 µM
[37] = second compound 10 µM, first compound 0.0316 µM
[38] = second compound 10 µM, first compound 0.1 µM
[39] = second compound 10 µM, first compound 0.316 µM
[40] = second compound 10 µM, first compound 1 µM
[41] = second compound 10 µM, first compound 3.16 µM
[42] = second compound 10 µM, first compound 10 µM
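Note: viability measured after seven days of drug exposure.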
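Throughout, for viability, T/C: luminescence signal used as surrogate for viable cell amount; 100% = DMSO vehicle control wells.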

Structure (SMILES): O=c1[nH]cc(F)c(=O)[nH]1 + CN1CCN(c2cc(C(=O)Nc3cc4cc(-c5cnn(C)c5)ccc4cn3)ccn2)CC1
- IC50 [1]: 8930 nM
- IC50 [2]: 160 nM
- IC50 [3]: < 31.6 nM
- IC50 [4]: < 31.6 nM
- IC50 [5]: < 31.6 nM
- IC50 [6]: < 31.6 nM
- viability, T/C [7]: 100%
- viability, T/C [8]: 91.9%
- viability, T/C [9]: 78.8%
- viability, T/C [10]: 108%
- viability, T/C [11]: 95.4%
- viability, T/C [12]: 45.2%
- viability, T/C [13]: 72%
- viability, T/C [14]: 62.8%
- viability, T/C [15]: 15.2%
- viability, T/C [16]: 45.6%
- viability, T/C [17]: 36.3%
- viability, T/C [18]: 29%
- viability, T/C [19]: 10.5%
- viability, T/C [20]: 10%
- viability, T/C [21]: 8.13%
- viability, T/C [22]: 8.71%
- viability, T/C [23]: 8.45%
- viability, T/C [24]: 8.48%
- viability, T/C [25]: 0.22%
- viability, T/C [26]: 0.19%
- viability, T/C [27]: 0.15%
- viability, T/C [28]: 0.18%
- viability, T/C [29]: 0.33%
- viability, T/C [30]: 0.58%
- viability, T/C [31]: 0.97%
- viability, T/C [32]: 0.11%
- viability, T/C [33]: 0.09%
- viability, T/C [34]: 0.19%
- viability, T/C [35]: 1.18%
- viability, T/C [36]: 1.57%
- viability, T/C [37]: 0.09%
- viability, T/C [38]: 0.24%
- viability, T/C [39]: 0.24%
- viability, T/C [40]: 0.82%
- viability, T/C [41]: 1.41%
- viability, T/C [42]: 1.15%

Structure (SMILES): C=C(F)C(=O)N1CCN(c2nc(OCC3CCCN3C)nc3c2CCN(c2cccc4cccc(Cl)c24)C3)CC1CC#N (stereo not given)
- viability, T/C (compound 0.0316 µM): 99.3% and 97.7%
- viability, T/C (compound 0.1 µM): 93.6% and 102%
- viability, T/C (compound 0.316 µM): 91.3% and 87.2%
- viability, T/C (compound 1 µM): 95.6% and 87.8%
- viability, T/C (compound 3.16 µM): 93.2% and 67.9%
- viability, T/C (compound 10 µM): 70.9% and 16.5%
- IC50 (curve of compound): > 10000 nM and 4650 nM

Structure (SMILES): Nc1ccn(C2OC(CO)C(O)C2(F)F)c(=O)n1 (stereo not given) + CN1CCN(c2cc(C(=O)Nc3cc4cc(-c5cnn(C)c5)ccc4cn3)ccn2)CC1
- IC50 [1]: 51.8 nM
- IC50 [2]: 46 nM
- IC50 [3]: < 31.6 nM
- IC50 [4]: < 31.6 nM
- IC50 [5]: < 31.6 nM
- IC50 [6]: < 31.6 nM
- viability, T/C [7]: 65.4%
- viability, T/C [8]: 28.6%
- viability, T/C [9]: 21.3%
- viability, T/C [10]: 19%
- viability, T/C [11]: 15.6%
- viability, T/C [12]: 16%
- viability, T/C [13]: 63.6%
- viability, T/C [14]: 21.3%
- viability, T/C [15]: 15.4%
- viability, T/C [16]: 11.6%
- viability, T/C [17]: 10.2%
- viability, T/C [18]: 11.8%
- viability, T/C [19]: 9.99%
- viability, T/C [20]: 10.4%
- viability, T/C [21]: 9.64%
- viability, T/C [22]: 9.63%
- viability, T/C [23]: 10.7%
- viability, T/C [24]: 12%
- viability, T/C [25]: 0.28%
- viability, T/C [26]: 0.18%
- viability, T/C [27]: 0.16%
- viability, T/C [28]: 0.12%
- viability, T/C [29]: 0.57%
- viability, T/C [30]: 0.21%
- viability, T/C [31]: 0.1%
- viability, T/C [32]: 0.12%
- viability, T/C [33]: 0.43%
- viability, T/C [34]: 0.07%
- viability, T/C [35]: 0.15%
- viability, T/C [36]: 0.1%
- viability, T/C [37]: 0.14%
- viability, T/C [38]: 0.14%
- viability, T/C [39]: 1.05%
- viability, T/C [40]: 1.61%
- viability, T/C [41]: 0.42%
- viability, T/C [42]: 0.9%

Structure (SMILES): COc1ccc([C@@H](O)c2cc(-c3ncnc4cc(N5CCOCC5)ccc34)c(F)cc2Cl)nn1 + CNC(=O)c1ccc(Nc2nc(OC3CCCC3)c3c(-c4ccc5nc(C)oc5c4)c[nH]c3n2)c(OC)c1
- IC50 [1]: 1620 nM
- IC50 [2]: 1690 nM
- IC50 [3]: 565 nM
- IC50 [4]: < 31.6 nM
- IC50 [5]: < 31.6 nM
- IC50 [6]: < 31.6 nM
- viability, T/C [7]: 107%
- viability, T/C [8]: 94%
- viability, T/C [9]: 88.3%
- viability, T/C [10]: 67.8%
- viability, T/C [11]: 27%
- viability, T/C [12]: 15.9%
- viability, T/C [13]: 91.1%
- viability, T/C [14]: 94.5%
- viability, T/C [15]: 82.7%
- viability, T/C [16]: 69.4%
- viability, T/C [17]: 27.9%
- viability, T/C [18]: 16.8%
- viability, T/C [19]: 75.6%
- viability, T/C [20]: 78.9%
- viability, T/C [21]: 67.3%
- viability, T/C [22]: 32.5%
- viability, T/C [23]: 20.7%
- viability, T/C [24]: 13.9%
- viability, T/C [25]: 41.9%
- viability, T/C [26]: 27.2%
- viability, T/C [27]: 26.3%
- viability, T/C [28]: 18.4%
- viability, T/C [29]: 16.5%
- viability, T/C [30]: 13.5%
- viability, T/C [31]: 25.3%
- viability, T/C [32]: 23.7%
- viability, T/C [33]: 21.1%
- viability, T/C [34]: 16.6%
- viability, T/C [35]: 17.8%
- viability, T/C [36]: 15.8%
- viability, T/C [37]: 18.5%
- viability, T/C [38]: 21.5%
- viability, T/C [39]: 20.8%
- viability, T/C [40]: 15.9%
- viability, T/C [41]: 15.4%
- viability, T/C [42]: 11.3%

Structure (SMILES): COC1C=CCC(C)C(C)S(=O)(=O)NC(=O)c2ccc3c(c2)N(CC2CCC21)CC1(CCCc2cc(Cl)ccc21)CO3 (stereo not given) + CN1CCN(c2cc(C(=O)Nc3cc4cc(-c5cnn(C)c5)ccc4cn3)ccn2)CC1
- IC50 [1]: 936 nM
- IC50 [2]: 191 nM
- IC50 [3]: < 31.6 nM
- IC50 [4]: < 31.6 nM
- IC50 [5]: < 31.6 nM
- IC50 [6]: < 31.6 nM
- viability, T/C [7]: 77.2%
- viability, T/C [8]: 101%
- viability, T/C [9]: 68.9%
- viability, T/C [10]: 48.4%
- viability, T/C [11]: 27.6%
- viability, T/C [12]: 14.2%
- viability, T/C [13]: 67.5%
- viability, T/C [14]: 58.4%
- viability, T/C [15]: 43.9%
- viability, T/C [16]: 21.8%
- viability, T/C [17]: 18%
- viability, T/C [18]: 12.6%
- viability, T/C [19]: 17.1%
- viability, T/C [20]: 12.4%
- viability, T/C [21]: 13.3%
- viability, T/C [22]: 8.91%
- viability, T/C [23]: 9.07%
- viability, T/C [24]: 3.48%
- viability, T/C [25]: 0.33%
- viability, T/C [26]: 3.47%
- viability, T/C [27]: 0.21%
- viability, T/C [28]: 0.82%
- viability, T/C [29]: 2.3%
- viability, T/C [30]: 1.79%
- viability, T/C [31]: 0.17%
- viability, T/C [32]: 0.15%
- viability, T/C [33]: 3.67%
- viability, T/C [34]: 0.12%
- viability, T/C [35]: 0.15%
- viability, T/C [36]: 0.59%
- viability, T/C [37]: 0.4%
- viability, T/C [38]: 0.21%
- viability, T/C [39]: 2.52%
- viability, T/C [40]: 0.21%
- viability, T/C [41]: 0.23%
- viability, T/C [42]: 1.62%

From PubChem BioAssay AID2060626 (Molecular Pharmacology Branch, DTP, NCI, 2025)
